Assay results published in patent US10112940B2, “Histone demethylase inhibitors” (Celgene Quanticel Research, Inc., priority 2014, dated 2018).

What was measured:
[1] = tested on: KYSE-150 esophageal carcinoma cell line; assay: In vitro cell-based assay: BrdU incorporation cell proliferation ELISA; parameters: species or system human; details: Homo sapiens, KYSE-150 cells, 168 hours compound incubation, read-out: Cellular IC50
Method in brief: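 KYSE-150 cells (SMAD4 mut, TP53 mut) seeded at 2,000 cells/well, treated next day with 11-point dilutions (100 μM to 2 nM final) for 168 h. Proliferation read by 2 h BrdU labelling and colorimetric anti-BrdU ELISA at 450 nm; IC50 from curve fit.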

JMJD2C = JMJD2C (Homo sapiens (Human), UniProt Q9H3R0); assay: JMJD2C in vitro enzyme inhibition assay (TR-FRET); type: biochemical; details: 0.3 nM JMJD2C, 300 nM H3K9me3-biotin peptide, 2 μM alpha-ketoglutaric acid, 30 minutes
Chain of JMJD2C (Q9H3R0 2-372): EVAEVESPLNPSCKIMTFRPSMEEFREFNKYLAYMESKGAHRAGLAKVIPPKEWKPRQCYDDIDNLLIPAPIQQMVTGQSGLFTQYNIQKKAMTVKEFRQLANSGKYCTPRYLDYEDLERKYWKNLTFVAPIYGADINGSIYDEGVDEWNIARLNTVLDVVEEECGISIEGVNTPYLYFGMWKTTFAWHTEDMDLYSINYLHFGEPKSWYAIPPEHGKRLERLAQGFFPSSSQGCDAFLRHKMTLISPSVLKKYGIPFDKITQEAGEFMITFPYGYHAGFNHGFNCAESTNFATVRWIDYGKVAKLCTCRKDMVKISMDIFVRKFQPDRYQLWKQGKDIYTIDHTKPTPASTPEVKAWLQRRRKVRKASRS
Method in brief: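 Baculovirus-expressed JMJD2C (aa 2-372), 0.3 nM, with 300 nM biotin-H3K9me3 peptide and 2 μM alpha-ketoglutarate in HEPES pH 7.3 with ascorbate and Fe(II), 30 min at room temperature, 11-point inhibitor series. H3K9me2 product detected by TR-FRET (Eu-antibody/streptavidin-APC, 665/615 ratio); IC50 fitted.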

Row | IC50 [1] | IC50 (JMJD2C) | Structure (SMILES)
1 | > 10000 nM | ≤ 100 nM | CC(CCN(C)C)c1ccc(N(C)c2ccc(Oc3nc(O)c4ccncc4n3)cc2)cc1 (stereo not shown) [Example 115, 2-(4-{[4-(3-dimethylamino-1-methyl-propyl)-phenyl]-methyl-amino}-phenoxy)-pyrido[3,4-d]pyrimidin-4-ol]
2 | ≤ 100 nM | 1000 to 10000 nM | CCN(c1ccc(Oc2nc(O)c3ccncc3n2)cc1)c1ccc(C(C)C)cc1 [Example 117, 2-(4-(ethyl(4-isopropylphenyl)amino)phenoxy)pyrido[3,4-d]pyrimidin-4-ol]
